The values below come from patent US20220162215A1, “COMPOSITIONS AND METHODS OF USING THE SAME FOR TREATMENT OF NEURODEGENERATIVE AND MITOCHONDRIAL DISEASE” (MITOKININ, INC., priority 2019, published 2022).

Structures are written as SMILES. Like-named read-outs stand apart in the source and are kept apart here.

Series [1] relates to HeLa MKYP cells. In words: Human mitophagy assay (HeLa MKYP, mtKeima FACS, FCCP/oligomycin). The class given is cell-based. The conditions noted are these: Homo sapiens, HeLa; for activation at 6.3 µM: 6 h, % activation of mitophagy at 6.3 μM treatment of the compound, read-out: Potency at 1 μM F/O toxin*. On the procedure:
Briefly, HeLa MKYP cells were plated at 10,000 cells/well in 96 well plates along with compounds at various concentrations. Following 16 hrs of incubation, cells were treated with 1 uM FCCP/oligomycin for 6 hours, then analyzed via FACS for the presence of mitochondria in lysosomes (as determined by an emissions spectrum shift from the pH-sensitive mtKeima tag). Examples are shown in FIG. 1 through FIG. 13 below.

Series [2] has as its system HeLa MKYP cells. As to the kind of experiment: Toxicity / cell death measured by DAPI staining (take-up). The class given is cell-based. The settings on record: 50 μM; for Toxicity (% positive for DAPI take-up at 50 μM)*: Table 3 Supplement A. As for the experimental part:
H2O2 treatment was performed as a control for cell death as measured by DAPI staining.
Briefly, HeLa MKYP cells were plated at 10,000 cells/well in 96 well plates along with compounds at various concentrations. Following 16 hrs of incubation, cells were treated with 1 uM FCCP/oligomycin for 6 hours, then analyzed via FACS for the presence of mitochondria in lysosomes (as determined by an emissions spectrum shift from the pH-sensitive mtKeima tag).

[3] abbreviates: Table 3, read-out: Potency at 1 μM F/O toxin* (EC50 of mitophagy activation).
[4] abbreviates: Table 3 Supplement A, as measured in Table 3, read-out: Potency (EC50 Max Mitophagy) (μM)*.

With `Fc1cc(Cl)cc(CNc2ncnc3[nH]c(C(F)(F)F)cc23)c1` [Compound 24], the activation at 6.3 µM in the series with HeLa MKYP cells [1] (Table 3) turned out to be 51.2%. Moreover, the “Toxicity (% positive for DAPI takeup @ 50 μM)” value with HeLa MKYP cells [2] (Table 3) stood at 4.8%.

In the case of `FC(F)(F)c1cc2c(NCc3cccc(Cl)c3)ncnc2[nH]1` [Compound 25], in the series on HeLa MKYP cells [1] (Table 3), the activation at 6.3 µM came to 49.9%. Moreover, the “Toxicity (% positive for DAPI takeup @ 50 μM)” value in the series on HeLa MKYP cells [2] (Table 3) was 20.3%.

With `CC(C)[C@@H](Nc1ncnc2[nH]c(C(F)(F)F)cc12)c1cncnc1` [Compound 26], the EC50 in the series with HeLa MKYP cells [1] (setting [3]) amounted to 6.9 µM; in the series on HeLa MKYP cells [1] (setting [4]), 6.85 µM. Also, the “Toxicity (% positive for DAPI takeup @ 50 μM)” value in the series with HeLa MKYP cells [2] (Table 3) is 6.8%. Further, the “Toxicity (% positive for DAPI take-up at 50 μM)*” value in the series on HeLa MKYP cells [2] amounted to 6.82%.

`CCCCNc1ncnc2[nH]c(C3CC3)nc12` [Compound 29]: the EC50 with HeLa MKYP cells [1] (setting [3]) was 18.8 µM. The “Toxicity (% positive for DAPI takeup @ 50 μM)” value in the series on HeLa MKYP cells [2] (Table 3) is recorded as 16.2%.

Consider `c1coc(CNc2ncnc3[nH]c(C4CCC4)nc23)c1` [Compound 30], for which the EC50 with HeLa MKYP cells [1] (setting [3]) is > 50 µM. Also, the “Toxicity (% positive for DAPI takeup @ 50 μM)” value with HeLa MKYP cells [2] (Table 3) is listed as 3.0%.

In the case of `CCCCNc1ncnc2[nH]c(C3CCC3)nc12` [Compound 31], the EC50 in the series on HeLa MKYP cells [1] (setting [3]) was > 50 µM. For the same compound, in the series with HeLa MKYP cells [2] (Table 3), the “Toxicity (% positive for DAPI takeup @ 50 μM)” value turned out to be 6.1%.

With `FC(F)(F)c1cc2c(NC3CCCc4ccccc43)ncnc2[nH]1` (stereo not drawn) [Compound 32], the EC50 in the series on HeLa MKYP cells [1] (setting [3]) is > 50 µM. Moreover, in the series with HeLa MKYP cells [2] (Table 3), the “Toxicity (% positive for DAPI takeup @ 50 μM)” value was 27.1%.

In the case of `FC(F)(F)c1cc2c(NC3CCOc4ccccc43)ncnc2[nH]1` (stereo not drawn) [Compound 33], the EC50 with HeLa MKYP cells [1] (setting [3]) was 3.5 µM. Besides, in the series on HeLa MKYP cells [2] (Table 3), the “Toxicity (% positive for DAPI takeup @ 50 μM)” value was determined as 22.3%.

Consider `FC(F)(F)c1cc2c(NC3COCc4ccccc43)ncnc2[nH]1` (stereo not drawn) [Compound 34], for which the EC50 in the series with HeLa MKYP cells [1] (setting [3]) was > 50 µM. For the same compound, in the series with HeLa MKYP cells [2] (Table 3), the “Toxicity (% positive for DAPI takeup @ 50 μM)” value turned out to be 42.9%.

On to `COc1cc(CNc2ncnc3[nH]c(C4CC4)nc23)ccn1` [Compound 35], for which the EC50 with HeLa MKYP cells [1] (setting [3]) is > 50 µM. The “Toxicity (% positive for DAPI takeup @ 50 μM)” value with HeLa MKYP cells [2] (Table 3) is reported as 7.1%.

In the case of `c1ncc(CNc2ncnc3[nH]c(C4CC4)nc23)cn1` [Compound 36], the EC50 in the series with HeLa MKYP cells [1] (setting [3]) is > 50 µM. Further, the “Toxicity (% positive for DAPI takeup @ 50 μM)” value in the series on HeLa MKYP cells [2] (human) is 7.1%.

As for `FC(F)(F)c1cc2c(N[C@H]3COc4ccccc43)ncnc2[nH]1` [Compound 39], the EC50 with HeLa MKYP cells [1] (setting [3]) was determined as 1.4 µM; in the series with HeLa MKYP cells [1] (setting [4]), 1.49 µM. Moreover, the “Toxicity (% positive for DAPI takeup @ 50 μM)” value in the series with HeLa MKYP cells [2] (Table 3) amounted to 22.8%. Also, the “Toxicity (% positive for DAPI take-up at 50 μM)*” value in the series with HeLa MKYP cells [2] came to 27.32%.

Take `C[C@H](Nc1ncnc2[nH]c(C(F)(F)F)cc12)c1ccccc1` [Compound 40]: the EC50 in the series with HeLa MKYP cells [1] (setting [3]) stood at 0.3 µM; in the series with HeLa MKYP cells [1] (setting [4]), 0.02 µM. Moreover, in the series with HeLa MKYP cells [2] (Table 3), the “Toxicity (% positive for DAPI takeup @ 50 μM)” value is listed as 90.8%. Further, the “Toxicity (% positive for DAPI take-up at 50 μM)*” value in the series on HeLa MKYP cells [2] is on record as 92.03%.

For the compound `FC(F)(F)c1cc2c(N[C@@H]3COc4ccccc43)ncnc2[nH]1` [Compound 41], the EC50 in the series with HeLa MKYP cells [1] (setting [3]) and with HeLa MKYP cells [1] (setting [4]) was 14.9 µM in each case. In addition, the “Toxicity (% positive for DAPI takeup @ 50 μM)” value in the series with HeLa MKYP cells [2] (Table 3) came out at 29.2%. Further, the “Toxicity (% positive for DAPI take-up at 50 μM)*” value in the series on HeLa MKYP cells [2] was determined as 29.25%.

Consider `FC(F)(F)c1cc2c(N[C@H]3CCOc4ccccc43)ncnc2[nH]1` [Compound 42], for which the EC50 with HeLa MKYP cells [1] (setting [3]) worked out at 5.6 µM; in the series with HeLa MKYP cells [1] (setting [4]), 5.64 µM. Also, the “Toxicity (% positive for DAPI takeup @ 50 μM)” value with HeLa MKYP cells [2] (Table 3) is recorded as 37.7%. In addition, the “Toxicity (% positive for DAPI take-up at 50 μM)*” value in the series on HeLa MKYP cells [2] is recorded as 37.66%.

Regarding `FC(F)(F)c1cc2c(NC3CCCc4ncncc43)ncnc2[nH]1` (stereo not drawn) [Compound 45], the results for the EC50 in the series on HeLa MKYP cells [1] (setting [3]) and with HeLa MKYP cells [1] (setting [4]) were > 50 µM and > 25 µM, respectively. The “Toxicity (% positive for DAPI takeup @ 50 μM)” value in the series on HeLa MKYP cells [2] (Table 3) is listed as 12.0%. Also, in the series with HeLa MKYP cells [2], the “Toxicity (% positive for DAPI take-up at 50 μM)*” value is reported as 11.97%.

With `C[C@H](Nc1ncnc2[nH]c(C3CC3)nc12)c1ccccc1` [Compound 46], the EC50 in the series with HeLa MKYP cells [1] (setting [3]) was determined as 3.2 µM; in the series with HeLa MKYP cells [1] (setting [4]), 3.17 µM. The “Toxicity (% positive for DAPI takeup @ 50 μM)” value with HeLa MKYP cells [2] (Table 3) was 27.6%. Also, the “Toxicity (% positive for DAPI take-up at 50 μM)*” value in the series on HeLa MKYP cells [2] worked out at 27.61%.

For `C[C@@H](Nc1ncnc2[nH]c(C3CC3)nc12)c1ccccc1` [Compound 47], the EC50 with HeLa MKYP cells [1] (setting [3]) was > 50 µM; with HeLa MKYP cells [1] (setting [4]) it was > 25 µM. In the series with HeLa MKYP cells [2] (Table 3), the “Toxicity (% positive for DAPI takeup @ 50 μM)” value came to 12.3%. Besides, the “Toxicity (% positive for DAPI take-up at 50 μM)*” value in the series with HeLa MKYP cells [2] stood at 12.33%.

As to `COc1ccccc1CNc1ncnc2[nH]c(C(F)(F)F)cc12` [Compound 48], the EC50 with HeLa MKYP cells [1] (setting [3]) turned out to be 2 µM. Further, in the series on HeLa MKYP cells [2] (Table 3), the “Toxicity (% positive for DAPI takeup @ 50 μM)” value is on record as 24.7%.

Take `FC(F)(F)c1cc2c(NCc3cncnc3)ncnc2[nH]1` [Compound 49]: the EC50 in the series with HeLa MKYP cells [1] (setting [3]) was 11.7 µM. In addition, in the series with HeLa MKYP cells [2] (human), the “Toxicity (% positive for DAPI takeup @ 50 μM)” value is 23.0%.

Consider `COc1ccc(CNc2ncnc3[nH]c(C(F)(F)F)cc23)c(OC)c1` [Compound 51], for which the EC50 with HeLa MKYP cells [1] (setting [3]) is 2.1 µM. Further, the “Toxicity (% positive for DAPI takeup @ 50 μM)” value in the series on HeLa MKYP cells [2] (Table 3) is given as 42.6%.

On to `c1ccc2c(c1)OCC2Nc1ncnc2[nH]cnc12` (stereo not drawn) [Compound 53], for which the results for the EC50 in the series with HeLa MKYP cells [1] (setting [3]) and in the series with HeLa MKYP cells [1] (setting [4]) were 6.1 µM and 6.11 µM, respectively. For the same compound, the “Toxicity (% positive for DAPI takeup @ 50 μM)” value with HeLa MKYP cells [2] (Table 3) is 21.0%. Further, the “Toxicity (% positive for DAPI take-up at 50 μM)*” value in the series with HeLa MKYP cells [2] was 20.95%.

With `c1ccc2c(c1)CC[C@@H]2Nc1ncnc2[nH]cnc12` [Compound 54], the EC50 amounted to 4.4 µM in the series with HeLa MKYP cells [1] (setting [3]) and 4.38 µM in the series with HeLa MKYP cells [1] (setting [4]). Moreover, the “Toxicity (% positive for DAPI takeup @ 50 μM)” value in the series on HeLa MKYP cells [2] (Table 3) worked out at 16.2%. In the series on HeLa MKYP cells [2], the “Toxicity (% positive for DAPI take-up at 50 μM)*” value was 16.16%.
